The results in this text go back to ChEMBL document CHEMBL1806398, “Benzothiazole-based N-(phenylsulfonyl)amides as a novel family of PPARα antagonists” (Bioorg Med Chem Lett, 2011).

Test [1] deals with T1, Peroxisome proliferator-activated receptor alpha (Homo sapiens) (UniProt Q07869).
T1 sequence (whole entry): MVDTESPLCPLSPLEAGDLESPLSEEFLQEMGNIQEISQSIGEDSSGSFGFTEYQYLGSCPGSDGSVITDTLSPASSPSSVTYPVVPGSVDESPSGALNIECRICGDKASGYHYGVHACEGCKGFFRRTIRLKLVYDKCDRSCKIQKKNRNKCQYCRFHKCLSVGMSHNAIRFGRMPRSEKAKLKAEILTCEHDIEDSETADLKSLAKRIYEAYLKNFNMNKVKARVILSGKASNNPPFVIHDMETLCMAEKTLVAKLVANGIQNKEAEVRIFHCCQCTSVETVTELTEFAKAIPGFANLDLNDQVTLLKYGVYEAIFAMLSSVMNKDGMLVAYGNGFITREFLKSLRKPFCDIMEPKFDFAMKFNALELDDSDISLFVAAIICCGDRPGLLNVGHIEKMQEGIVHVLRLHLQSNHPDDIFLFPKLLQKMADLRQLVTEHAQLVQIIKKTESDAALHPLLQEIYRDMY
Description: Agonist activity at PPARalpha ligand binding domain expressed in HEK293 cells co-expressing GAL4 at 150 uM after 18 hrs by dual-luciferase activity based transactivation assay relative to control. It counts as cell-based.

Test [2] addresses T2, Peroxisome proliferator-activated receptor alpha (Homo sapiens, UniProt Q07869).
T2 sequence (Q07869 whole entry): T1 sequence (whole entry)
The test is described as follows: (§1) Antagonist activity at PPARalpha ligand binding domain expressed in HEK293 cells co-expressing GAL4 assessed as inhibition of GW7647-induced transactivation activity after 18 hrs by dual-luciferase assay. It counts as cell-based.

Test [3] deals with T1, Peroxisome proliferator-activated receptor alpha (Homo sapiens). The test is described as follows: Antagonist activity at PPARalpha in human HepG2 cells assessed as inhibition of CPT1A mRNA expression at 150 uM after 48 hrs by RT-PCR analysis relative to control. It counts as functional, cell-based.
The target is the same in test [4]. The test is described as follows: Antagonist activity at PPARalpha in human HepG2 cells assessed as inhibition of GW7647-induced CPT1A mRNA expression at 150 uM after 48 hrs by RT-PCR analysis relative to control. It counts as functional, cell-based.
Test [5] shares this target. The description is as §1. It counts as cell-based.
Test [6] has the same target. Description: Antagonist activity at PPARalpha ligand binding domain expressed in HEK293 cells co-expressing GAL4 assessed as inhibition of GW7647-induced transactivation activity at 1 uM after 18 hrs by dual-luciferase assay relative to control. Format: cell-based.
Test [7] shares this target. Description: Antagonist activity at PPARalpha ligand binding domain expressed in HEK293 cells co-expressing GAL4 assessed as inhibition of GW7647-induced transactivation activity at 10 uM after 18 hrs by dual-luciferase assay relative to control. It counts as cell-based.
For test [8] the target is unchanged. Description: Antagonist activity at PPARalpha ligand binding domain expressed in HEK293 cells co-expressing GAL4 assessed as inhibition of GW7647-induced transactivation activity at 50 uM after 18 hrs by dual-luciferase assay relative to control. Format: cell-based.
Test [9] has the same target. The test is described as follows: Antagonist activity at PPARalpha ligand binding domain expressed in HEK293 cells co-expressing GAL4 assessed as inhibition of GW7647-induced transactivation activity at 100 uM after 18 hrs by dual-luciferase assay relative to control. It counts as cell-based.
Test [10] has the same target. Description: Antagonist activity at PPARalpha ligand binding domain expressed in HEK293 cells co-expressing GAL4 assessed as inhibition of transactivation activity at 1 uM after 18 hrs by dual-luciferase assay relative to control. It counts as cell-based.
Test [11] has the same target. Description: Antagonist activity at PPARalpha ligand binding domain expressed in HEK293 cells co-expressing GAL4 assessed as inhibition of transactivation activity at 10 uM after 18 hrs by dual-luciferase assay relative to control. Format: cell-based.
For test [12] the target is unchanged. The test is described as follows: Antagonist activity at PPARalpha ligand binding domain expressed in HEK293 cells co-expressing GAL4 assessed as inhibition of transactivation activity at 50 uM after 18 hrs by dual-luciferase assay relative to control. Format: cell-based.
Test [13] has the same target. The test is described as follows: Antagonist activity at PPARalpha ligand binding domain expressed in HEK293 cells co-expressing GAL4 assessed as inhibition of transactivation activity at 100 uM after 18 hrs by dual-luciferase assay relative to control. Format: cell-based.
Test [14] has the same target. The test is described as follows: Antagonist activity at PPARalpha ligand binding domain expressed in HEK293 cells co-expressing GAL4 assessed as inhibition of transactivation activity at 150 uM after 18 hrs by dual-luciferase assay relative to control. It counts as cell-based.
The target is the same in test [15]. Description: Antagonist activity at PPARalpha in human HepG2 cells assessed as inhibition of GW7647-induced CPT1A mRNA expression at 0.2 uM after 48 hrs by RT-PCR analysis relative to control. Format: functional, cell-based.
For test [16] the target is unchanged. Description: Antagonist activity at PPARalpha in human HepG2 cells assessed as inhibition of GW7647-induced CPT1A mRNA expression at 2 uM after 48 hrs by RT-PCR analysis relative to control. It counts as functional, cell-based.
The target is the same in test [17]. The test is described as follows: Antagonist activity at PPARalpha in human HepG2 cells assessed as inhibition of GW7647-induced CPT1A mRNA expression at 20 uM after 48 hrs by RT-PCR analysis relative to control. Format: functional, cell-based.
Test [18] shares this target. The test is described as follows: Antagonist activity at PPARalpha in human HepG2 cells assessed as inhibition of GW7647-induced CPT1A mRNA expression after 48 hrs by RT-PCR analysis relative to control. Format: functional, cell-based.
The target is the same in test [19]. Description: Antagonist activity at PPARalpha ligand binding domain expressed in HEK293 cells co-expressing GAL4 assessed as inhibition of GW7647-induced transactivation activity at 150 uM after 18 hrs by dual-luciferase assay relative to control. Format: cell-based.
For test [20], the target named is T2, Peroxisome proliferator-activated receptor alpha. The test is described as follows: Agonist activity at PPARalpha ligand binding domain expressed in HEK293 cells co-expressing GAL4 after 18 hrs by dual-luciferase activity based transactivation assay. It counts as cell-based.

As to `CC(C)(Oc1ccc(Cl)cc1)C(=O)O`, the fold change (FC) in test [1] was 1.6.
Regarding `CCCC(Sc1nc2cc(Cl)ccc2s1)C(=O)NS(=O)(=O)c1ccccc1` (racemic), the results for the fold change (FC) in test [1], in test [3] and in test [4] were 0.09, 0.248 and 0.235, respectively. The half-maximal inhibitory concentration (IC50) (usually the concentration that inhibits the measured activity by half) in [2] came out at 22.2 µM.
As to `CCOc1ccc2nc(SC(C)C(=O)NS(=O)(=O)c3ccccc3)sc2c1` (racemic), the fold change (FC) in test [1] is 0.89.
As to `O=C(NS(=O)(=O)c1ccccc1)C(Sc1nc2cc(Cl)ccc2s1)c1ccccc1` (racemic), the fold change (FC) in test [1] is 0.01; in [6], 3.8; in test [7], 2.14; in [8] it was -0.63; in [9], -0.1; in test [10], -0.78. The fold change (FC) in test [11] was -0.23; in [12] it was -0.03; in test [13], -0.03; in test [14] it was -0.01; in test [3], 0.005; in test [4], 0.005. Also, the fold change (FC) in test [15] is 3.59; in test [16], 2.36; in test [17], 1.68; in test [19] it was -0.09. Further, the inhibition result in test [5] and in [18] was “Dose-dependent effect” throughout. Further, in [2], the IC50 was determined as 6.5 µM.
`CCCC(Sc1nc2ccc(OCC)cc2s1)C(=O)NS(=O)(=O)c1ccccc1` (racemic): the fold change (FC) in [1] amounted to 0.05. The IC50 in test [2] was determined as 31 µM.
Regarding `CCCCCCC(Sc1nc2cc(Cl)ccc2s1)C(=O)NS(=O)(=O)c1ccccc1` (racemic), the fold change (FC) in test [1] worked out at 1.49. In test [20], a half-maximal response (EC50) required 50.6 µM.
Take `CC(C)C(Sc1nc2cc(Cl)ccc2s1)C(=O)NS(=O)(=O)c1ccccc1` (racemic): in test [1], the fold change (FC) was 0.1. Also, the IC50 in [2] is 27.9 µM.
For `CCCCC(Sc1nc2cc(Cl)ccc2s1)C(=O)NS(=O)(=O)c1ccccc1` (racemic), the figures for the fold change (FC) in test [1], in test [3] and in test [4] were 0.01, 0.005 and 0.003, respectively. Moreover, the IC50 in [2] was found to be 19.9 µM.
